# From patent publication US20260272936A1, “TREATMENT OF CANCER WITH A PARG INHIBITOR” (858 Therapeutics, Inc., priority 2023, published 2026)
# Assays:
# OCM.246 cells = assay: 6-day proliferation of patient-derived ovarian cancer model, nuclei count; assay type: cell-based, human
# Experimental: (§1) Ex vivo ovarian cancer models (OCMs) were established from the ascites of high-grade serous ovarian cancer patients (Coulson-Gilmer, 2021, J Exp Clin Cancer Res) and grown in vitro as 2D cell lines. OCMs were cultured in an incubator at 37° C. in 5% CO2 in OCMI media.
# (§2) Compound 1 IC50 values for inhibition of cell proliferation were determined by imaging and counting the number of nuclei after compound treatment. Cells were harvested with trypsin (Thermo Fisher Scientific, Waltham, MA, USA, Cat #25200-056) and plated in Sarstedt 96-well Cell+ Tissue Culture Plates (Thermo Fisher Scientific, Waltham, MA, USA, Cat #NC9624222) at 5,000 cells/well (OCM.109) or 10,000 cells/well (OCM.246) in 100 μL of OCMI medium and incubated overnight at 37° C., 5% CO2. The following day, 1000× Compound 1 and niraparib concentration curves were prepared by serial dilution in 100% DMSO. The 1000× concentration was diluted 1:200 into growth media to generate a 5× concentration curve in 0.5% DMSO/growth medium before addition of 25 μL of the 5× compound to the wells. Control wells received 25 μL of 0.5% DMSO in media or 10 μM of Compound 1. The plates were mixed and incubated for 6 days at 37° C., 5% CO2 before fixing and staining the cells for nuclei counting as described in Example 3.
# (§3) Four fields in each well were acquired using the DAPI channel at 10× magnification. Using high-content software (Cell Reporter Xpress), the nuclei were detected and counted. The percent proliferation after treatment was determined by normalizing the number of nuclei in the treated wells to the DMSO and 10 μM Compound 1 control wells. Concentration response curves and IC50 values for percent inhibition of proliferation were generated by non-linear regression analysis using a least squares fit of the log (inhibitor) vs. response-Variable slope (four parameters) curve using GraphPad Prism 10 software (GraphPad Software, Boston, MA, USA).
# OCM.109 cells = assay: as above; assay type: cell-based, human
# Experimental: as §1, §2, §3
# HCC1806 xenograft = assay: HCC1806 triple negative breast cancer CDX, combination with camonsertib (RP-3500); parameters: species or system Athymic nude mice; details: mouse, in vivo
# Experimental: HCC1806 cells were cultured in RPMI medium containing 10% FBS (Thermo Fisher Scientific Cat #A31605-02) and penicillin+streptomycin (Thermo Fisher Scientific Cat #15070-063). The CDX model was established by subcutaneous inoculation of 1×10^6 HCC1806 cells/mouse into the right flank of Athymic nude mice (The Jackson Laboratory, Bar Harbor, ME, USA, Cat #002019). […] Compound 1 was administered to mice at 200 mg/kg to mice orally once daily from Monday through Friday throughout the treatment period and camonsertib (RP-3500) was administered at 15 mg/kg orally once daily from Monday through Wednesday throughout the treatment period (Table 11).
# Tumor volumes and body weights were measured twice weekly. […] Statistical analysis of end-of-study tumor volumes relative to the vehicle group tumor volume was performed using Kruskal-Wallis Anova test with Dunn's multiple comparisons test.
# [1] = tested on: γH2AX in HCC1428 tumor tissue; assay: γH2AX immunohistochemistry of HCC1428 xenograft tumor tissue (Study 2); assay type: in vivo, BALB/c nude mice; details: vehicle 2.4%
# Experimental: The mice in the 50 mg/kg BID group were dosed every day whereas the mice in the […] were dosed for the first 5 days of each 7-day cycle, such that the total weekly dose was the same between these two groups. At the end of the study, tumor tissue was collected for the vehicle, 50 mg/kg BID, and 30, 50 and 100 mg/kg QD dose groups and formalin-fixed and paraffin embedded (FFPE) for γH2AX immunohistochemistry. γH2AX expression in FFPE tumor tissue was evaluated by staining and was performed using immunohistochemistry and validated antibody conditions at Histowiz (Long Island City, NY, USA). The γH2AX IHC images were then quantified in-house using QuPath software. The total number of nuclei objects per tumor section based on hematoxylin counter-staining (blue) were segmented using a Stardist algorithm and the number of γH2AX positive DAB (3,3′ Diaminobenzidine) stained cells (brown) quantified using object classification with a pre-trained random forest model based on DAB staining parameters including intensity and standard deviation.
# % γH2AX positive=(#γH2AX positive nuclei/#total nuclei)*100
# Statistical analysis of the γH2AX staining was conducted using Ordinary one-way ANOVA with Dunnett's multiple comparisons test and differences considered significant at a calculated probability p≤0.05.
# [2] = tested on: HBCx-34 breast cancer patient-derived xenograft; assay: HBCx-34 breast cancer PDX model; assay type: in vivo, Hsd: Athymic Nude-Foxn1nu mice; details: 75 or 100 mg/kg BID, at day 15, transient
# Experimental: The PDX models were established by subcutaneous inoculation of HBCx-22 or HBCx-34 cells into Hsd: Athymic Nude-Foxn1nu mice. Breast tumor-bearing mice received estrogen diluted in drinking water (β-oestradiol, 8.5 mg/L) from the date of tumor inoculation until the end of the study to promote optimal growth of the ER^+ cell line. Groups of 10 animals each were established by random assignment. Tumor volumes and body weights were measured twice weekly. […] Statistical analysis of end-of-study tumor volumes was performed using the Kruskal-Wallis test with Dunn's multiple comparisons test (HBCx-34) or Brown-Forsythe test with Dunnett's T3 multiple comparisons test (HBCx-22).
# Compound 1 was administered to mice orally twice daily (BID) for 42 days at a dose of 75 or 100 mg/kg based on body weight. […] Compound 1 was administered to mice orally BID for 35 days at doses of 75 or 100 mg/kg based on body weight.
# DRYK1B = molecular target: T1, DRYK1B (Homo sapiens, UniProt Q9Y463); assay: Eurofins protein kinase panel at 10 μM; assay type: biochemical
# T1 construct: Eurofins (contract study)
# T1 sequence (Q9Y463 whole entry): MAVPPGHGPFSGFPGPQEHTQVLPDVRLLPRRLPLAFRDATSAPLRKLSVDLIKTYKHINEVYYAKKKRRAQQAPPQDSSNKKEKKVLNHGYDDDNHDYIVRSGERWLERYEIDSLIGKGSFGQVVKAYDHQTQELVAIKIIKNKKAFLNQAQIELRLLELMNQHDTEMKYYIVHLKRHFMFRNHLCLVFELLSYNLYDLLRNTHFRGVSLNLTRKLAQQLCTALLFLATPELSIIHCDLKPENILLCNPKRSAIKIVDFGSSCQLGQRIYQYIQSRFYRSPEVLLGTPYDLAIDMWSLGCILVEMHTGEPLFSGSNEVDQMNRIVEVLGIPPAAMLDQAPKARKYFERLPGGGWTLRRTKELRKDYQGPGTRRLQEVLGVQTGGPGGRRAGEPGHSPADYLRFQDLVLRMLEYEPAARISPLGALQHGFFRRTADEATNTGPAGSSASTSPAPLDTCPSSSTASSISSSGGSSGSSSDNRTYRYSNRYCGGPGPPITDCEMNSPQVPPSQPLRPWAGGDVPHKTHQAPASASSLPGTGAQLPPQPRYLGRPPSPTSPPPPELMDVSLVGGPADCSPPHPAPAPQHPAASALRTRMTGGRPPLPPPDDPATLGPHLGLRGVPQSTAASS
# Experimental: (§4) The inhibitory potential of Compound 1 was tested against 38 diverse non-kinase enzymes and 55 receptors, ion channels and neurotransmitter transporters in radioligand competition binding assays using mostly human recombinant proteins. […] Compound 1 was also tested against an additional panel of 468 protein kinases. Studies were performed at Eurofins (Luxembourg City, Luxembourg) using their published assay formats.
# [3] = tested on: panel of 468 protein kinases (all other kinases tested); assay: Eurofins protein kinase panel at 10 μM; assay type: biochemical
# Experimental: as §4
# [4] = Homo sapiens, 144 h, read-out: IC50 inhibition of proliferation
structure (smiles),measurement,setting,value
"[2H]C([2H])(c1cnn(C)c1)N1C(=O)c2cc(S(=O)(=O)NC3(C)CC3)ccc2N2C1=NC[C@H]2C [Compound 1, (R)-1-methyl-4-((1-methyl-1H-pyrazol-4-yl)methyl-d2)-N-(1-methylcyclopropyl)-5-oxo-1,2,4,5-tetrahydroimidazo[1,2-a]quinazoline-7-sulfonamide]",IC50,OCM.246 cells; [4],162 nM
same,potency better than niraparib,OCM.246 cells; OCM.246,> 20 fold
same,IC50,OCM.109 cells; [4],51 nM
same,potency better than niraparib,OCM.109 cells; OCM.109,> 80 fold
same,body weight change during the treatment period,HCC1806 xenograft,body weight gains
same,% γH2AX positive cells in tumor tissue,[1]; 30 mg/kg QD,3.7% +/− 0.4
same,% γH2AX positive cells in tumor tissue,[1]; 50 mg/kg BID,6.8% +/− 0.4
same,% γH2AX positive cells in tumor tissue,[1]; 50 mg/kg QD,4.2% +/− 0.3
same,% γH2AX positive cells in tumor tissue,[1]; 100 mg/kg QD,5.9% +/− 0.5
same,maximum decrease in body weight,[2],approximately 11%
same,inhibition at 10 µM,DRYK1B,51%
same,% inhibition,[3],< 50%
